Drawing on patent US7994202B2, “Bicyclic nitrogen-containing heterocyclic compounds” (Asahi Kasei Pharma Corporation, priority 2008, dated 2011), this text covers IC50 for 28 molecules.

Each structure is given as a SMILES string.

This assay has as its target T1, human EP1 receptor (Homo sapiens, UniProt P34995).
T1 construct: expressed in transfected cells
T1 sequence (P34995 1-402): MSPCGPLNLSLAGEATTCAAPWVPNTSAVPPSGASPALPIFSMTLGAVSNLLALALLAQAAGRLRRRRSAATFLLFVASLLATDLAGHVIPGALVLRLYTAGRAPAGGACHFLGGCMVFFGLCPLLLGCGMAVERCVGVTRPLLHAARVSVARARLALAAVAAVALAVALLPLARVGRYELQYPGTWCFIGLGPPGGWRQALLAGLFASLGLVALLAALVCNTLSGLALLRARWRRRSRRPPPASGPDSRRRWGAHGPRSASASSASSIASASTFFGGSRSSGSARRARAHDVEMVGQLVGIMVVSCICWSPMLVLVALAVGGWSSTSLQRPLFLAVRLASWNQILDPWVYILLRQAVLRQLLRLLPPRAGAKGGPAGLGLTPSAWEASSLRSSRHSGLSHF
Nature of the assay: Antagonist activity using cells expressing human EP1 receptor (SRE-luciferase reporter activity, PGE2 10 nM). It is filed as cell-based. The settings on record: HEK293 cells stably expressing human EP1 receptor, 6 hours, read-out: IC50 value in the measurement of antagonist activity using human EP1 receptor expressing cells. An excerpt:
Measurement of an Antagonist Activity by Using Cells Expressing Human EP1 Receptor
As a result of searching Refseq Database for prostaglandin E receptor, genetic information of human EP1 (NM_000955) receptor was obtained. Based on this sequence information, human EP1 receptor gene was cloned by PCR using human cDNA as a template and by an ordinary method to give human EP1 receptor. Then, HEK293 in which the receptor is stably expressed was established, together with a reporter gene (SRE-Luciferase) in which serum responsible element (SRE) is added at the upstream region of firefly luciferase gene. The resulting cells were seeded to a 96 well plate (5×10^4 cells/well) and cultured for one day. To the plate, PGE2 (200 nM, final concentration 10 nM) and the test compound (in an amount of 1/20, 20× of the final concentration) were added to initiate the reaction. After allowing the reaction to proceed at 37° C. for 6 hours, the medium was aspirated off, added with a luminescent agent and the reporter activity was measured. […]
As for `CCC(C)CNc1ccc2c(-c3ccccc3)nn(-c3nc(C(=O)O)cs3)c2c1` (stereo not shown) [Exp. 151], the IC50 was 100 to 500 nM.

Turning to `O=C(O)c1csc(-n2nc(-c3ccccc3)c3ccc(Sc4ccc(OC(F)(F)F)cc4)nc32)n1` [Exp.177], the IC50 lay within 100 to 500 nM. Consider `Cn1cncc1C(=O)Nc1ccc2c(-c3ccccc3)nn(-c3nc(C(=O)O)cs3)c2c1` [Exp. 130], for which the IC50 was in the range of 100 to 500 nM. Consider `CC(C)C(C)Sc1ccc2c(-c3ccccc3)nn(-c3nc(C(=O)O)cs3)c2n1` (stereo not shown) [Exp. 166], for which the IC50 lay within 100 to 500 nM. The figure for `O=C(O)c1csc(-n2nc(-c3ccccc3)c3ccc(NCc4ccc(F)cc4)cc32)n1` [Exp. 147] is 100 to 500 nM; for `C/C=C\c1ccc2c(-c3ccccc3)nn(-c3nc(C(=O)O)cs3)c2c1` [Exp. 160] it is at most 20 nM; for `O=C(O)c1csc(-n2nc(-c3ccccc3)c3ccc(NCC4CCOC4)cc32)n1` (stereo not shown) [Exp. 150] it is 100 to 500 nM.

For `O=C(O)c1csc(-n2nc(-c3ccccc3)c3ccc(N4CCC4)nc32)n1` [Exp. 167], the IC50 lay in the range of 20 to 100 nM. As for `CC(C)S(=O)(=O)Nc1ccc2c(-c3ccccc3)nn(-c3nc(C(=O)O)cs3)c2c1` [Exp. 141], the figure is 100 to 500 nM; as for `C=Cc1ccc2c(-c3ccccc3)nn(-c3nc(C(=O)OCC)cs3)c2c1` [Exp.116, Ethyl 2-(3-phenyl-6-vinyl-1H-indazol-1-yl)thiazole-4-carboxylate], 20 to 100 nM; as for `O=C(O)c1csc(-n2nc(-c3ccccc3)c3c2CC(C(F)(F)F)CC3)n1` (stereo not shown) [Exp.102], at most 20 nM. Take `O=C(O)c1csc(-n2nc(-c3ccccc3)c3ccc(NCCc4ccccc4)cc32)n1` [Exp. 152]: the IC50 is 20 to 100 nM.

For `O=C(O)c1csc(-n2nc(-c3ccccc3)c3ccc(NC(=O)C45CC6CC(CC(C6)C4)C5)cc32)n1` [Exp. 133], the IC50 fell in the range of 100 to 500 nM. Consider `O=C(O)c1csc(-n2nc(-c3ccccc3)c3ccc(NCc4ccccn4)cc32)n1` [Exp. 148], for which the IC50 fell in the range of 20 to 100 nM. The figure for `O=C(O)c1csc(-n2nc(-c3ccccc3)c3ccc(Cl)cc32)n1` [Exp. 156] is at most 20 nM. Take `N#Cc1ccc2c(-c3ccccc3)nn(-c3nc(C(=O)O)cs3)c2c1` [Exp. 118, 2-(6-Cyano-3-phenyl-1H-indazol-1-yl)thiazole-4-carboxylic acid]: the IC50 lay in the range of 20 to 100 nM.

In the case of `O=C(O)c1csc(-n2nc(-c3ccccc3)c3ccc(Sc4ccccc4F)nc32)n1` [Exp. 175], the IC50 was 20 to 100 nM.

In the case of `O=C(O)c1csc(-n2nc(-c3ccccc3)c3ccc(I)cc32)n1` [Exp. 158], the IC50 is at most 20 nM. As for `O=C(O)c1csc(-n2nc(-c3cccs3)c3ccccc32)n1` [Exp. 51], the figure is 20 to 100 nM; as for `O=C(O)c1csc(-n2nc(-c3ccccc3)c3ccc(NCc4ccccc4F)cc32)n1` [Exp. 145], 100 to 500 nM.

With `O=C(O)c1csc(Cn2nc(-c3ccccc3)c3ccc(C(F)(F)F)cc32)n1` [Exp.104], the IC50 was at most 20 nM. For `O=C(O)c1ccc2c(-c3ccccc3)nn(-c3nc(C(=O)O)cs3)c2c1` [Exp.119, 2-(6-Carboxy-3-phenyl-1H-indazol-1-yl)thiazole-4-carboxylic acid], the half-maximal inhibitory concentration (IC50) was at most 20 nM. For the molecule `O=C(O)c1csc(-n2nc(-c3ccccc3)c3ccc(Br)cc32)n1` [Exp. 157], the IC50 is at most 20 nM. As for `O=C(O)c1csc(-n2nc(-c3ccccc3)c3ccc(Sc4cccc(O)c4)nc32)n1` [Exp. 178], the figure is 20 to 100 nM; as for `O=C(O)c1csc(-n2nc(-c3ccccc3)c3ccc(NCc4cccc(F)c4)cc32)n1` [Exp. 146], 100 to 500 nM; as for `O=C(O)c1csc(Cn2nc(-c3ccccc3)c3ccccc32)n1` [Exp.7, 2-{(3-phenyl-1H-indazol-1-yl)methyl}thiazole-4-carboxylic acid], 20 to 100 nM. Regarding `O=C(O)c1csc(-n2nc(-c3ccccc3)c3ccc(NCc4cccnc4)cc32)n1` [Exp. 149], the IC50 is 100 to 500 nM. As for `O=C(O)c1csc(-n2nc(-c3ccccc3)c3ncc(C(F)(F)F)cc32)n1` [Exp.164], the IC50 was at most 20 nM.
